According to patent US20230123334A1, “AMINO LIPID COMPOUND, PREPARATION METHOD THEREFOR, AND APPLICATION THEREOF” (SHENZHEN SHENXIN BIOTECHNOLOGY CO., LTD., priority 2020, published 2023):

Tested on: HEK293 cells
Assay: Preliminary screening as DNA vectors, GFP transfection of HEK293 cells
Format: cell-based
Conditions: amino lipid/DOPE liposome with 75 ng plasmid DNA (psin-EGFP-IRES-Puro); number of GFP-expressing cells divided by total nuclei (Hoechst)
Outline: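 Lipid + DOPE liposomes (NaOAc, pH 5.6) complexed w/ 75 ng psin-EGFP-IRES-Puro, 30 min RT; added to 3-5×10^4 HEK293/well, 37° C. Hoechst 0.2 μg/mL at 20-24 h, imaged after further 20-24 h. Efficiency = GFP+ cells / total nuclei.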

Structure (SMILES)	Absolute DNA transfection efficiency in HEK293 cells [%]
CCCCCCCCCSc1nc(NCCN2CCCC2)nc(SCCCCCC)n1 [S6S9 D3]	6.9
CCCCCCCCSc1nc(NCCCCCC)nc(NCCCN(C)C)n1 [S8N6 D6]	4.3
CCCCCCCCSc1nc(NCC2CCN(C)CC2)nc(SCCCCCCCC)n1 [S8S8 D10]	27.9
CCCCCCCCCCCCCCCNc1nc(NCCCN2CCN(C)CC2)nc(SCCCCCCCC)n1 [S8N15 D9]	12.4
CCCCCCCCNc1nc(NCCCN2CCN(C)CC2)nc(SCCCCCCC)n1 [S7N8 D9]	14.9
CCCCCCCCCCCCNc1nc(NCCCN(C)C)nc(SCCCCCC)n1 [S6N12 D6]	6.0
CCCCCCCCCCCCCNc1nc(NCCN2CCOCC2)nc(SCCCCCCCCCCC)n1 [S11N13 D2]	5.5
CCCCCCCCCCCCCCCCSc1nc(NCCCCCCCCCCCC)nc(NCCCN(C)C)n1 [S16N12 D6]	2.7
CCCCCCCCCCCCCCCCCCSc1nc(NCCCCCCCC)nc(NCCN2CCN(C)CC2)n1 [S18N8 D5]	13.6
CCCCCCCCCNc1nc(NCCN2CCCCC2)nc(SCCCCCCC)n1 [S7N9 D4]	13.0
CCCCCCCCCCCCCCCCCCSc1nc(NCC2CCN(C)CC2)nc(N(CCCCCCCCCCCC)CCCCCCCCCCCC)n1 [S18^2N12 D10]	0.4
CCCCCCCCCCCSc1nc(NCC2CCN(C)CC2)nc(SCCCCCCCC)n1 [S8S11 D10]	42.4
CCCCCCCCCCCCCCCCCCNc1nc(NCCN2CCOCC2)nc(SCCCCCCCCCCCC)n1 [S12N18 D2]	0.0
CCCCCCCCCCCCCCCCCCSc1nc(NCCCCCCCCCCCCCCCC)nc(NCC2CCN(C)CC2)n1 [S18N16 D10]	0.1
CCCCCCCCCCCSc1nc(NCCN2CCOCC2)nc(SCCCCCC)n1 [S6S11 D2]	18.7
CCCCCCCCCCCCCCCNc1nc(NCCN2CCCCC2)nc(SCCCCCCCCCCCC)n1 [S12N15 D4]	1.0
CCCCCCCCSc1nc(NCCCCCCC)nc(NCCN2CCCC2)n1 [S8N7 D3]	3.9
CCCCCCCCCCCCCCCCSc1nc(NCCCCCCCCCCCC)nc(NCCCN2CCN(C)CC2)n1 [S16N12 D9]	11.4
CCCCCCCCCCCCCCCCSc1nc(NCCCCCCCCCCCCC)nc(NCCN2CCOCC2)n1 [S16N13 D2]	0.0
CCCCCCCCCCCCCCCSc1nc(NCCCCCCCCCCCC)nc(NCCCN2CCOCC2)n1 [S15N12 D8]	1.5
CCCCCCCCCCSc1nc(NCCCCCCCCC)nc(NCCN(CC)CC)n1 [S10N9 D7]	6.9
CCCCCCCCCCCCSc1nc(NCCCCCCCC)nc(NCCN2CCCCC2)n1 [S12N8 D4]	0.0
CCCCCCCCCCCCCCCNc1nc(NCCCN(C)C)nc(SCCCCCCCCCCCCCCC)n1 [S15N15 D6]	0.0
CCCCCCCCCCCCCCCCCCSc1nc(NCCCN(C)C)nc(N(CCCCCCCCCCCC)CCCCCCCCCCCC)n1 [S18^2N12 D6]	1.6

Structure (SMILES)	Absolute DNA transfection efficiency in HEK293 cells [%]
CCCCCCCCCCCCCCCCCCNc1nc(NCCN2CCOCC2)nc(SCCCCCCCCCCCCCCCC)n1 [S16N18 D2]	0.0
CCCCCCCCCCCCCCSc1nc(NCCCCCCCCC)nc(NCCN2CCCCC2)n1 [S14N9 D4]	2.0
CCCCCCCCCCCSc1nc(NCCN2CCCCC2)nc(SCCCCCCC)n1 [S7S11 D4]	14.2
CCCCCCCCCCCCSc1nc(NCCCN2CCN(C)CC2)nc(SCCCCCCCC)n1 [S8S12 D9]	3.5
CCCCCCCCCCCCCCCCCCNc1nc(NCCN(CC)CC)nc(SCCCCCCC)n1 [S7N18 D7]	3.9
CCCCCCCCCCCCCCCSc1nc(NCCCCCCCCCCCCC)nc(NCCN2CCCC2)n1 [S15N13 D3]	4.2
CCCCCCCCCCCCCCCNc1nc(NCCCN2CCOCC2)nc(SCCCCCCCCCC)n1 [S10N15 D8]	5.1
CCCCCCCCCCCCSc1nc(NCCN2CCOCC2)nc(SCCCCCCC)n1 [S7S12 D2]	18.0
CCCCCCCCCCCCSc1nc(NCCCCCCCC)nc(NCCN2CCCC2)n1 [S12N8 D3]	1.5
CCCCCCCCCCCCSc1nc(NCCCCCCCCCCC)nc(NCCN2CCCC2)n1 [S12N11 D3]	30.3
CCCCCCCCNc1nc(NCCN2CCN(C)CC2)nc(SCCCCCCC)n1 [S7N8 D5]	22.1
CCCCCCCCCCCCCCCCSc1nc(NCCCCCCCCC)nc(NCC2CCN(C)CC2)n1 [S16N9 D10]	6.9
CCCCCCCCCCCCCCCSc1nc(NCCN2CCN(C)CC2)nc(SCCCCCCC)n1 [S7S15 D5]	14.9
CCCCCCCCNc1nc(NCCN2CCCC2)nc(SCCCCCCC)n1 [S7N8 D3]	9.3
CCCCCCCCCCCCSc1nc(NCC2CCN(C)CC2)nc(N(CCCCCCCCCCCC)CCCCCCCCCCCC)n1 [S12^2N12 D10]	0.1
CCCCCCCCCCSc1nc(NCCCCCCC)nc(NCCN2CCCCC2)n1 [S10N7 D4]	3.6
CCCCCCCCCCCCCCCCCCSc1nc(NCCCCCCCC)nc(NCC2CCN(C)CC2)n1 [S18N8 D10]	11.7
CCCCCCCCCCCCCNc1nc(NCCN(C)C)nc(SCCCCCC)n1 [S6N13 D1]	6.5
CCCCCCCCCCCCN(CCCCCCCCCCCC)c1nc(NCCCN(C)C)nc(SCCCCCCCCC)n1 [S9^2N12 D6]	1.1
CCCCCCCCCCCCCCCCNc1nc(NCCN2CCCC2)nc(SCCCCCCCC)n1 [S8N16 D3]	3.3
CCCCCCCCCCCCCCCNc1nc(NCCN2CCCC2)nc(SCCCCCCCCCCC)n1 [S11N15 D3]	24.5
CCCCCCCCNc1nc(NCCN2CCOCC2)nc(SCCCCCCC)n1 [S7N8 D2]	2.7
CCCCCCCCCCCCCCCCCCNc1nc(NCCN2CCN(C)CC2)nc(SCCCCCCCC)n1 [S8N18 D5]	8.6
CCCCCCCCCCCCN(CCCCCCCCCCCC)c1nc(NCCN(C)C)nc(SCCCCCCCCCCC)n1 [S11^2N12 D1]	0.0

Structure (SMILES)	Absolute DNA transfection efficiency in HEK293 cells [%]
CCCCCCCCCCCCCCCNc1nc(NCCCN2CCOCC2)nc(SCCCCCCCCCCCCCC)n1 [S14N15 D8]	0.3
CCCCCCCCCCCCCNc1nc(NCCN(CC)CC)nc(SCCCCCCCCCCCC)n1 [S12N13 D7]	12.9
CCCCCCCCCNc1nc(NCCN2CCOCC2)nc(SCCCCCCC)n1 [S7N9 D2]	13.9
CCCCCCCCCCCCNc1nc(NCCN(CC)CC)nc(SCCCCCCCCCCCC)n1 [S12N12 D7]	3.7
CCCCCCCCCCCCCCCCSc1nc(NCCN2CCCCC2)nc(SCCCCCCC)n1 [S7S16 D4]	10.9
CCCCCCCCCNc1nc(NCCN2CCN(C)CC2)nc(SCCCCCCCCC)n1 [S9N9 D5]	47.4
CCCCCCCCCCCCCCCCCCNc1nc(NCCN2CCCCC2)nc(SCCCCCCCCCCCCCC)n1 [S14N18 D4]	0.7
CCCCCCCCCCCNc1nc(NCCN2CCCC2)nc(SCCCCCCCCCC)n1 [S10N11 D3]	12.6
CCCCCCCCCCCCCCCNc1nc(NCCN(CC)CC)nc(SCCCCCCCC)n1 [S8N15 D7]	2.2
CCCCCCNc1nc(NCC2CCN(C)CC2)nc(SCCCCCC)n1 [S6N6 D10]	0.0
CCCCCCCCCCCCCCCSc1nc(NCCCCCCC)nc(NCCN2CCN(C)CC2)n1 [S15N7 D5]	12.9
CCCCCCCCCCCCSc1nc(NCCN(CC)CC)nc(SCCCCCC)n1 [S6S12 D7]	6.6
CCCCCCCCCCCCCCCSc1nc(NCCCCCCCCCCC)nc(NCCN2CCN(C)CC2)n1 [S15N11 D5]	11.8
CCCCCCCCCSc1nc(NCCCN(C)C)nc(SCCCCCCCC)n1 [S8S9 D6]	6.3
CCCCCCCCCCCCCCCCSc1nc(NCC2CCN(C)CC2)nc(N(CCCCCCCCCCCC)CCCCCCCCCCCC)n1 [S16^2N12 D10]	0.3
CCCCCCCCCCCCCCSc1nc(NCCCCCC)nc(NCC2CCN(C)CC2)n1 [S14N6 D10]	39.0
CCCCCCCCCCCCCCCCNc1nc(NCCN(C)C)nc(SCCCCCCCCCCCCCCCC)n1 [S16N16 D1]	0.7
CCCCCCCCCCCNc1nc(NCCN2CCCC2)nc(SCCCCCCC)n1 [S7N11 D3]	25.3
CCCCCCCCCCCCCCCCSc1nc(NCCN2CCCC2)nc(SCCCCCC)n1 [S6S16 D3]	9.8
CCCCCCCCCCCCCCCCCCSc1nc(NCCCCCCCCCCCCCCC)nc(NCCN2CCCCC2)n1 [S18N15 D4]	0.2
CCCCCCCCCCCCCCCCCCNc1nc(NCCN2CCCCC2)nc(SCCCCCCCCC)n1 [S9N18 D4]	9.0
CCCCCCCCCCCCCCSc1nc(NCCCN(C)C)nc(SCCCCCCC)n1 [S7S14 D6]	4.4
CCCCCCCCCCCCCCCCCCNc1nc(NCCCN(C)C)nc(SCCCCCCCCCCCCCCCCCC)n1 [S18N18 D6]	0.4
